One assay deals with TiRP melanoma. Briefly: TiRP melanoma model, monotherapy. The following applies: TiRP+/+ mice; 5 mg/kg, i.p. daily from tumor size around 250 mm^3. Type of assay: in vivo. On the procedure:
FIGS. 14A-B is a set of curves showing the tumor growth (melanoma) in TiRP+/+ mice that have received daily injections of guanfacine (5 mg/kg, i.p. triangles; FIG. 14A), clonidine (5 mg/kg, i.p., circles; FIG. 14B), or control (PBS, i.p., squares), when the tumor size was around 250 mm^3 until sacrifice.
TiRP mice have been created by crossing Ink4a/Are^flox/flox mice with mice carrying a transgenic construct controlled by the tyrosinase promoter and driving the expression of H-Ras ^12V and Trapl a which encodes a MAGE-type tumor antigen P1A; the promoter is separated from the coding region by a stop cassette made of a floxed self-deleting CreER (Huijbers et al., 2006, Cancer Res 66, 3278-3286). Those mice were backcrossed to a B10.D2 background and bred to homozygosity. TCRP1A mice heterozygous for the H-2Ld/P1A35-43-specific TCR transgene were kept on the B10.D2;Rag1^−/− background (Shanker et al., 2004, J Immunol 172, 5069-5077). […]
A fresh solution of 40H-Tamoxifen was prepared by dissolving 40H-Tamoxifen (Imaginechem®) in 100% ethanol and mineral oil (ratio 1:9) followed by 30 min sonication, and injected subcutaneously (2 mg/200 uL per mouse) in the neck area of gender-matched 7 weeks old TiRP mice. Tumor appearance was monitored daily and tumors were measured three times/week. Tumor volume (in mm^3) was calculated by the following formula: Volume=width^2×length/2.

The subject of a further assay is hepatocellular carcinoma. Briefly: Tumor model: hepatocellular carcinoma. Type of assay: in vivo, mice. The following applies: hepatocellular carcinoma (FIG. 22B, 23B). The source says:
(§1) FIGS. 23A-H is a set of curves showing the tumor growth of mice treated with PBS (Control, circles) or guanabenz (GBZ, triangles) in different tumor models: such as mammary gland tumor (FIG. 23A), hepatocellular carcinoma (FIG. 23B), T cell lymphoma (FIG. 23C), lung cancer (FIG. 23D), myeloma (FIG. 23E), mammary adenocarcinoma (FIG. 23F), renal cancer (FIG. 23G) and fibrosarcoma (FIG. 23H).

The test system of the next assay is T cell lymphoma. Briefly: Tumor model: T cell lymphoma. It counts as in vivo, mice. The note with it: T cell lymphoma (FIG. 22C, 23C).
From the text: as §1

A further assay deals with MC38 colon carcinomas. Briefly: MC38 colon carcinoma in wildtype mice. It counts as in vivo, C57BL/6 Wildtype mice. The note with it: 5 mg/kg, i.p. daily from tumor size around 50 mm^3. As for the experimental part: C57BL/6 Wildtype or C57BL/6 Adra2a KO mice bearing MC38 colon carcinomas received daily injections of vehicle control (PBS), clonidine (5 mg/kg, i.p.) or guanabenz (5 mg/kg, i.p.), when the tumor size was around 50 mm^3, until the day of sacrifice.

In another assay the test system is renal cancer. Briefly: Tumor model: renal cancer. It counts as in vivo, mice. The note with it: renal cancer (FIG. 22G, 23G).
From the text: as §1

For assay [1], the system named is JAK2V617F mutated bone marrow. Briefly: Myelofibrosis by JAK2V617F bone marrow transplantation, platelet counts. It counts as in vivo, mice. The following applies: 5 mg/kg daily for three weeks. On the procedure: Murine femurs and tibias from JAK2V617F mutant mice were first harvested and cleaned thoroughly. Marrow cells were flushed into PBS with 2% fetal bovine serum using a 25G needle and syringe. Resulting cell suspensions were then filtered through a 40 uM cell strainer. Recipient mice were irradiated with two doses of 500 rad 4 h apart. 1 million of donor cells were injected into wild-type recipients by standard intravenous injection using a 27G insulin syringe. One week after bone marrow transplantation, mice were treated with guanabenz or clonidine at a dose of 5 mg/kg daily for three weeks. After three weeks of treatment, mice were dissected and peripheral blood was drawn by cardiac puncture, the platelet concentration was measured by Cell Counter Analyzer MS9-5V.

Another assay has as its system CT26 colon cancer. Briefly: CT26 colon cancer tumor growth (FIGS. 15-16). Type of assay: in vivo, C57BL/6J mice. The note with it: CT26 colon cancer, FIGS. 15A, 16A. The source says: Tumor infiltration of CD8+cells evaluated at the day of sacrifice by FACS (FIG. 15B). Tumor growth of CT26 colon cancer in NSG mice treated with PBS (Control), clonidine, clonidine mixed with yohimbine, or yohimbine alone (FIG. 15C). FIGS. 16A-C is a set of curves and histograms showing the tumor growth of CT26 colon cancer in C57BL/6J mice treated with PBS (Control, circles), guanabenz (diamonds), guanabenz mixed with yohimbine (light grey inverted triangles), or yohimbine alone (dark grey inverted triangles) (FIG. 16A); the tumor infiltration of CD8+ cells evaluated at the day of sacrifice by FACS (FIG. 16B); and the tumor growth of CT26 colon cancer in NSG mice treated with PBS (Control), guanabenz, guanabenz mixed with yohimbine, or yohimbine alone (FIG. 16C). […] For evaluation of yohimbine on the effect of clonidine and guanabenz, the mice were randomized into different groups when tumors size arrived around 100 mm^3 and received daily injections of guanabenz (5 mg/kg, i.p.), yohimbine (10 mg/kg), a mix of guanabenz (5 mg/kg, i.p.) and yohimbine (10 mg/kg, i.p.), clonidine (5 mg/kg, i.p.), a mix of clonidine (5 mg/kg, i.p.) and yohimbine (10 mg/kg, i.p.) or vehicle control.

In assay [2] the test system is myelofibrosis induced by romiplostim. The note with it: romiplostim 1 mg/kg s.c. days 1, 8, 15, 5 mg/kg i.p. daily for two weeks from day 8, wildtype mice. On the procedure:
8-week female C57BL/6 J wild-type and Adra2a KO mice were administered saline or 1 mg/kg of romiplostim by a subcutaneous injection into the neck skin on days 1, 8 and 15. Clonidine or guanabenz were administrated i.p. at a dose of 5 mg/kg daily for two weeks starting from day 8. Mice were dissected on day 22 and peripheral blood was drawn by cardiac puncture, the platelet concentration was measured by Cell Counter Analyzer MS9-5V.

“Also recorded” adds a separate entry of the source. Read-outs that look alike come from different tables or passages of the source.

`Clc1cccc(Cl)c1N=C1NCCN1` [clonidine]: in the assay on TiRP melanoma, the “tumor volume, monotherapy” value was “efficient in decreasing the tumor volume”. Further, the tumor growth result in the assay with hepatocellular carcinoma is recorded as “strong tumor inhibition”; in the assay with T cell lymphoma, “strong tumor inhibition”; in the assay on MC38 colon carcinomas, “significant tumor inhibition”; in the assay on renal cancer it was “strong tumor inhibition”; in the assay with CT26 colon cancer, “inhibited CT26 colon cancer tumor growth”. Further, the “platelet (PLT) counts” value is given as “significantly reduces the platelet (PLT) counts; also recorded: significantly reduced the high platelet counts” in assay [1], “significantly reduces the platelet (PLT) counts” in assay [2] and “reduces the platelet count” in assay [2] (listed as Clonidine).

The values above are taken from patent publication US20230165836A1, “ALPHA-2 ADRENERGIC RECEPTOR AGONISTS FOR THE TREATMENT OF CANCER” (UNIVERSITÉ CATHOLIQUE DE LOUVAIN, priority 2020, published 2023).
